Source: the supplement of paper PMC10307832

Tests used:
Assay in all cases: relative viability (nuclei count vs DMSO), 5 days (fraction); higher = more cells survive
[1] = compound: COC1=CC=C(C=C1)CN2C=CC3=C2C=C(C=C3)C(=O)NO
In short: (§1)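 Cells of lung cancer lines were placed in 1536-well plates and kept overnight at 37 °C. Pinning then delivered five library-drug doses (not always all listed), spaced by √10, onto plates anchored with vehicle, and the cells were left 5 days without changing medium. One step fixed, permeabilised and stained them with Hoechst, and MetaXpress counted nuclei in 4× images. Viability, as a median over plates, is treated-well nuclei divided by vehicle-well nuclei, with acceptance only at control CV below 25% and at least one doubling.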

Veliparib = compound: C[C@]1(c2nc3c(C(N)=O)cccc3[nH]2)CCCN1 [Veliparib]
In short: as §1

[2] = compound: COC1=CC=C(C=C1)CN2C=CC3=C2C=C(C=C3)C(=O)NO + CC(=O)Nc1cccc(-n2c(=O)n(C3CC3)c(=O)c3c(Nc4ccc(I)cc4F)n(C)c(=O)c(C)c32)c1 [Trametinib] (partner 0.02 µM)
In short: (§2)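 Relative viability equals treated-well nuclei counts divided by vehicle-well nuclei counts. Counts came from 4× images of lung cancer cell lines grown in 1536-well plates for 5 days after pin-tool dosing on the day after seeding. Dosing used one drug alone or a fixed anchor-drug dose plus five library-drug doses (not always all listed) in √10 steps, and values are medians of duplicate plates.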

Veliparib + Navitoclax = compound: C[C@]1(c2nc3c(C(N)=O)cccc3[nH]2)CCCN1 [Veliparib] + CC1(C)CCC(c2ccc(Cl)cc2)=C(CN2CCN(c3ccc(C(=O)NS(=O)(=O)c4ccc(N[C@H](CCN5CCOCC5)CSc5ccccc5)c(S(=O)(=O)C(F)(F)F)c4)cc3)CC2)C1 [Navitoclax] (partner 0.5 µM)
In short: as §2

## NCI-H2009
[1]; 0.08 µM
  relative viability: 0.926
[1]; 0.253 µM
  relative viability: 0.978
[1]; 0.8 µM
  relative viability: 1.01
[1]; 2.53 µM
  relative viability: 0.993
[1]; 8 µM
  relative viability: 0.913
Veliparib; 0.02 µM
  relative viability: 0.918
Veliparib; 0.06325 µM
  relative viability: 0.922
Veliparib; 0.2 µM
  relative viability: 0.972
Veliparib; 0.6325 µM
  relative viability: 0.931
Veliparib; 2 µM
  relative viability: 1.1
[2]; first compound 0.08 µM
  relative viability: 0.288
[2]; first compound 0.253 µM
  relative viability: 0.264
[2]; first compound 0.8 µM
  relative viability: 0.261
[2]; first compound 2.53 µM
  relative viability: 0.248
[2]; first compound 8 µM
  relative viability: 0.194
Veliparib + Navitoclax; first compound 0.02 µM
  relative viability: 1.22
Veliparib + Navitoclax; first compound 0.06325 µM
  relative viability: 1.07
Veliparib + Navitoclax; first compound 0.2 µM
  relative viability: 1.2
Veliparib + Navitoclax; first compound 0.6325 µM
  relative viability: 1.1
Veliparib + Navitoclax; first compound 2 µM
  relative viability: 1.31

## NCI-H1993
[1]; 0.08 µM
  relative viability: 0.932
[1]; 0.253 µM
  relative viability: 0.9
[1]; 0.8 µM
  relative viability: 1.06
[1]; 2.53 µM
  relative viability: 0.969
[1]; 8 µM
  relative viability: 0.888
Veliparib; 0.02 µM
  relative viability: 0.693
Veliparib; 0.06325 µM
  relative viability: 0.883
Veliparib; 0.2 µM
  relative viability: 0.87
Veliparib; 0.6325 µM
  relative viability: 1.05
Veliparib; 2 µM
  relative viability: 0.929
[2]; first compound 0.08 µM
  relative viability: 0.526
[2]; first compound 0.253 µM
  relative viability: 0.564
[2]; first compound 0.8 µM
  relative viability: 0.518
[2]; first compound 2.53 µM
  relative viability: 0.514
[2]; first compound 8 µM
  relative viability: 0.543
Veliparib + Navitoclax; first compound 0.02 µM
  relative viability: 0.939
Veliparib + Navitoclax; first compound 0.06325 µM
  relative viability: 0.898
Veliparib + Navitoclax; first compound 0.2 µM
  relative viability: 1.07
Veliparib + Navitoclax; first compound 0.6325 µM
  relative viability: 0.902
Veliparib + Navitoclax; first compound 2 µM
  relative viability: 0.959

## NCI-H2087
[1]; 0.08 µM
  relative viability: 0.913
[1]; 0.253 µM
  relative viability: 1
[1]; 0.8 µM
  relative viability: 1.19
[1]; 2.53 µM
  relative viability: 0.935
[1]; 8 µM
  relative viability: 0.85
Veliparib; 0.02 µM
  relative viability: 0.854
Veliparib; 0.06325 µM
  relative viability: 0.97
Veliparib; 0.2 µM
  relative viability: 0.936
Veliparib; 0.6325 µM
  relative viability: 0.955
Veliparib; 2 µM
  relative viability: 1.05
[2]; first compound 0.08 µM
  relative viability: 0.163
[2]; first compound 0.253 µM
  relative viability: 0.204
[2]; first compound 0.8 µM
  relative viability: 0.232
[2]; first compound 2.53 µM
  relative viability: 0.181
[2]; first compound 8 µM
  relative viability: 0.154
Veliparib + Navitoclax; first compound 0.02 µM
  relative viability: 0.883
Veliparib + Navitoclax; first compound 0.06325 µM
  relative viability: 0.821
Veliparib + Navitoclax; first compound 0.2 µM
  relative viability: 0.849
Veliparib + Navitoclax; first compound 0.6325 µM
  relative viability: 0.863
Veliparib + Navitoclax; first compound 2 µM
  relative viability: 0.952

## LCLC-97TM1
[1]; 0.253 µM
  relative viability: 1.03
[1]; 0.8 µM
  relative viability: 1.02
[1]; 2.53 µM
  relative viability: 0.942
[1]; 8 µM
  relative viability: 0.887
Veliparib; 0.02 µM
  relative viability: 0.903
Veliparib; 0.06325 µM
  relative viability: 0.925
Veliparib; 0.2 µM
  relative viability: 0.897
Veliparib; 0.6325 µM
  relative viability: 0.912
Veliparib; 2 µM
  relative viability: 0.993
[2]; first compound 0.253 µM
  relative viability: 0.201
[2]; first compound 0.8 µM
  relative viability: 0.228
[2]; first compound 2.53 µM
  relative viability: 0.19
[2]; first compound 8 µM
  relative viability: 0.204
Veliparib + Navitoclax; first compound 0.02 µM
  relative viability: 0.425
Veliparib + Navitoclax; first compound 0.06325 µM
  relative viability: 0.32
Veliparib + Navitoclax; first compound 0.2 µM
  relative viability: 0.387
Veliparib + Navitoclax; first compound 2 µM
  relative viability: 0.476

## HCC-827
[1]; 0.08 µM
  relative viability: 1.06
[1]; 0.253 µM
  relative viability: 0.935
[1]; 0.8 µM
  relative viability: 0.997
[1]; 2.53 µM
  relative viability: 1.03
[1]; 8 µM
  relative viability: 0.97
Veliparib; 0.02 µM
  relative viability: 0.986
Veliparib; 0.06325 µM
  relative viability: 1.03
Veliparib; 0.2 µM
  relative viability: 1
Veliparib; 0.6325 µM
  relative viability: 0.977
Veliparib; 2 µM
  relative viability: 1.07
[2]; first compound 0.08 µM
  relative viability: 0.539
[2]; first compound 0.253 µM
  relative viability: 0.537
[2]; first compound 0.8 µM
  relative viability: 0.528
[2]; first compound 2.53 µM
  relative viability: 0.533
[2]; first compound 8 µM
  relative viability: 0.514
Veliparib + Navitoclax; first compound 0.02 µM
  relative viability: 1.03
Veliparib + Navitoclax; first compound 0.06325 µM
  relative viability: 0.937
Veliparib + Navitoclax; first compound 0.2 µM
  relative viability: 0.971
Veliparib + Navitoclax; first compound 0.6325 µM
  relative viability: 0.944
Veliparib + Navitoclax; first compound 2 µM
  relative viability: 1.02

## COR-L 105
[1]; 0.08 µM
  relative viability: 0.679
[1]; 0.253 µM
  relative viability: 0.928
[1]; 0.8 µM
  relative viability: 0.936
[1]; 2.53 µM
  relative viability: 0.799
[1]; 8 µM
  relative viability: 0.565
Veliparib; 0.02 µM
  relative viability: 0.843
Veliparib; 0.06325 µM
  relative viability: 0.794
Veliparib; 0.2 µM
  relative viability: 0.895
Veliparib; 0.6325 µM
  relative viability: 0.835
Veliparib; 2 µM
  relative viability: 1.08
[2]; first compound 0.08 µM
  relative viability: 0.348
[2]; first compound 0.253 µM
  relative viability: 0.469
[2]; first compound 0.8 µM
  relative viability: 0.443
[2]; first compound 2.53 µM
  relative viability: 0.471
[2]; first compound 8 µM
  relative viability: 0.385
Veliparib + Navitoclax; first compound 0.02 µM
  relative viability: 0.688
Veliparib + Navitoclax; first compound 0.06325 µM
  relative viability: 0.817
Veliparib + Navitoclax; first compound 0.2 µM
  relative viability: 0.712
Veliparib + Navitoclax; first compound 0.6325 µM
  relative viability: 0.615
Veliparib + Navitoclax; first compound 2 µM
  relative viability: 0.928

## NCI-H1915
[1]; 0.08 µM
  relative viability: 0.888
[1]; 0.253 µM
  relative viability: 0.992
[1]; 0.8 µM
  relative viability: 1.02
[1]; 2.53 µM
  relative viability: 0.982
[1]; 8 µM
  relative viability: 0.881
Veliparib; 0.02 µM
  relative viability: 0.949
Veliparib; 0.06325 µM
  relative viability: 0.881
Veliparib; 0.2 µM
  relative viability: 0.786
Veliparib; 0.6325 µM
  relative viability: 0.9
Veliparib; 2 µM
  relative viability: 0.928
[2]; first compound 0.08 µM
  relative viability: 0.282
[2]; first compound 0.253 µM
  relative viability: 0.297
[2]; first compound 0.8 µM
  relative viability: 0.305
[2]; first compound 2.53 µM
  relative viability: 0.32
[2]; first compound 8 µM
  relative viability: 0.31
Veliparib + Navitoclax; first compound 0.02 µM
  relative viability: 0.766
Veliparib + Navitoclax; first compound 0.06325 µM
  relative viability: 0.759
Veliparib + Navitoclax; first compound 0.2 µM
  relative viability: 0.706
Veliparib + Navitoclax; first compound 0.6325 µM
  relative viability: 0.703
Veliparib + Navitoclax; first compound 2 µM
  relative viability: 0.67

## HCC-44
[1]; 0.08 µM
  relative viability: 0.916
[1]; 0.253 µM
  relative viability: 0.923
[1]; 0.8 µM
  relative viability: 1.03
[1]; 2.53 µM
  relative viability: 1.05
[1]; 8 µM
  relative viability: 1
Veliparib; 0.02 µM
  relative viability: 0.971
Veliparib; 0.06325 µM
  relative viability: 0.798
Veliparib; 0.2 µM
  relative viability: 0.958
Veliparib; 0.6325 µM
  relative viability: 1.01
Veliparib; 2 µM
  relative viability: 0.94
[2]; first compound 0.08 µM
  relative viability: 1.04
[2]; first compound 0.253 µM
  relative viability: 1.02
[2]; first compound 0.8 µM
  relative viability: 0.996
[2]; first compound 2.53 µM
  relative viability: 1.04
[2]; first compound 8 µM
  relative viability: 1.06
Veliparib + Navitoclax; first compound 0.02 µM
  relative viability: 1.05
Veliparib + Navitoclax; first compound 0.06325 µM
  relative viability: 0.846
Veliparib + Navitoclax; first compound 0.2 µM
  relative viability: 1.02
Veliparib + Navitoclax; first compound 0.6325 µM
  relative viability: 0.798
Veliparib + Navitoclax; first compound 2 µM
  relative viability: 0.967
